# Experimental data published in patent publication US6395896B2, “Pyridazine derivatives, manufacturing method and related composition” (Shiseido Co., Ltd., priority 1999, dated 2002).
# Key:
# [1] = Pigment stabilization effect (sequestering agent combination); parameters: key to Sunlight exposure (80 MJ) Appearance: A: No change; B: No almost change; C: Yes change; key to Sunlight exposure (80 MJ) ΔE: color difference ΔE in Lab space vs. color before sunlight exposure; conditions: for Sunlight exposure (80 MJ) Appearance / Sunlight exposure (80 MJ) ΔE: amounts wt %
# Method: First of all, the photostabilization effect and appearance changes of a composition for each pigment were studied by the following evaluation formulation.
# Each test sample was prepared. Observation of appearance changes (visual evaluation) and measurement of color difference (ΔE) were carried out for samples exposed to sunlight (around 80 MJ).
# Color difference was measured by Lab coordinate system with spectrophotometer. Color difference was calculated based on the color before sunlight exposure. Namely, from the measured value (L1,a1,b1) before sunlight exposure, color difference (ΔE) was calculated by following formula.
# skin (face) = assay: Skin irritation test: continuous use test; assay type: in vivo, human; conditions: 10 wt % ultraviolet absorbent, twice a day for 4 weeks
# Method: Sample (10 wt % of ultraviolet absorbent) is the same as test example 2. The continuous use test by the healthy subjects was carried out with one group of twenty subjects. A proper amount of each sample was applied to the face twice a day for 4 weeks. The evaluation standard of Table 5 was judged. [table] The calculated average score was evaluated by the next standard. A: Average score is 0. B: Average score is over 0 and less than 1. C: Average score is 1 or more, and less than 2. D: Average score is 2 or more.
# [2] = colorant Blue No. 1 0.0001, photostabilizer 0.02 + Sodium metaphosphate 0.03
# [3] = colorant Blue No. 1 0.0001, photostabilizer 0.02 + Trisodium ethylenediamine tetraacetate 0.03
# [4] = colorant Blue No. 1 0.0001, photostabilizer 0.02 + Trisodium hydroxyethyl ethylenediamine triacetate 0.03
# [5] = colorant Blue No. 1 0.0001, photostabilizer 0.02, no sequestering agent
# [6] = colorant Green No. 3 0.0001, photostabilizer 0.02 + Sodium metaphosphate 0.03
# [7] = colorant Green No. 3 0.0001, photostabilizer 0.02 + Sodium polyphosphate 0.03
# [8] = colorant Green No. 3 0.0001, photostabilizer 0.02 + Trisodium ethylenediamine tetraacetate 0.03
# [9] = colorant Green No. 3 0.0001, photostabilizer 0.02, no sequestering agent
# [10] = colorant Red No. 106 0.0001, photostabilizer 0.02 + Sodium metaphosphate 0.02
# [11] = colorant Red No. 106 0.0001, photostabilizer 0.02 + Sodium polyphosphate 0.02
# [12] = colorant Red No. 106 0.0001, photostabilizer 0.02 + Trisodium ethylenediamine tetraacetate 0.02
# [13] = colorant Red No. 106 0.0001, photostabilizer 0.02, no sequestering agent
# [14] = colorant Red No. 213 0.0001, photostabilizer 0.03 + Sodium metaphosphate 0.05
# [15] = colorant Red No. 213 0.0001, photostabilizer 0.03 + Trisodium ethylenediamine tetraacetate 0.05
# [16] = colorant Red No. 213 0.0001, photostabilizer 0.03 + Trisodium hydroxyethyl ethylenediamine triacetate 0.05
# [17] = colorant Red No. 213 0.0001, photostabilizer 0.03, no sequestering agent
# [18] = colorant Red No. 227 0.0001, photostabilizer 0.01 + Sodium metaphosphate 0.02
# [19] = colorant Red No. 227 0.0001, photostabilizer 0.01 + Trisodium ethylenediamine tetraacetate 0.02
# [20] = colorant Red No. 227 0.0001, photostabilizer 0.01 + Trisodium hydroxyethyl ethylenediamine triacetate 0.02
# [21] = colorant Red No. 227 0.0001, photostabilizer 0.01, no sequestering agent
# [22] = colorant Red No. 401 0.001, photostabilizer 0.02 + Sodium metaphosphate 0.1
# [23] = colorant Red No. 401 0.001, photostabilizer 0.02 + Sodium polyphosphate 0.1
# [24] = colorant Red No. 401 0.001, photostabilizer 0.03 + Trisodium ethylenediamine tetraacetate 0.1
# [25] = colorant Red No. 401 0.001, photostabilizer 0.03, no sequestering agent
# [26] = colorant Yellow No. 5 0.001, photostabilizer 0.01 + Sodium metaphosphate 0.02
# [27] = colorant Yellow No. 5 0.001, photostabilizer 0.01 + Sodium polyphosphate 0.02
# [28] = colorant Yellow No. 5 0.001, photostabilizer 0.01 + Trisodium ethylenediamine tetraacetate 0.02
# [29] = colorant Yellow No. 5 0.001, photostabilizer 0.01, no sequestering agent
# [30] = colorant Yellow No. 203 0.001, photostabilizer 0.01 + Sodium metaphosphate 0.02
# [31] = colorant Yellow No. 203 0.001, photostabilizer 0.01 + Trisodium ethylenediamine tetraacetate 0.02
# [32] = colorant Yellow No. 203 0.001, photostabilizer 0.01 + Trisodium hydroxyethyl ethylenediamine triacetate 0.02
# [33] = colorant Yellow No. 203 0.001, photostabilizer 0.01, no sequestering agent
# [34] = colorants Red No. 106 0.00001 + Yellow No. 5 0.0001, photostabilizer 0.02 + Trisodium ethylenediamine tetraacetate 0.02
# [35] = colorants Red No. 106 0.00001 + Yellow No. 5 0.0001, photostabilizer 0.02, no sequestering agent
# [36] = colorants Red No. 106 0.00001 + Yellow No. 203 0.0001, photostabilizer 0.02 + Trisodium hydroxyethyl ethylenediamine triacetate 0.02
# [37] = colorants Red No. 106 0.00001 + Yellow No. 203 0.0001, photostabilizer 0.02, no sequestering agent
# [38] = colorants Red No. 213 0.00001 + Blue No. 1 0.00001, photostabilizer 0.02 + Trisodium hydroxyethyl ethylenediamine triacetate 0.03
# [39] = colorants Red No. 213 0.00001 + Blue No. 1 0.00001, photostabilizer 0.02, no sequestering agent
# [40] = colorants Red No. 227 0.0001 + Yellow No. 5 0.0001, photostabilizer 0.02 + Trisodium ethylenediamine tetraacetate 0.02
# [41] = colorants Red No. 227 0.0001 + Yellow No. 5 0.0001, photostabilizer 0.02, no sequestering agent
# [42] = colorants Red No. 227 0.0001 + Yellow No. 203 0.0001, photostabilizer 0.05 + Sodium metaphosphate 0.02
# [43] = colorants Red No. 227 0.0001 + Yellow No. 203 0.0001, photostabilizer 0.05, no sequestering agent
# [44] = colorants Red No. 401 0.0001 + Blue No. 1 0.00001, photostabilizer 0.02 + Trisodium ethylenediamine tetraacetate 0.03
# [45] = colorants Red No. 401 0.0001 + Blue No. 1 0.00001, photostabilizer 0.02, no sequestering agent
# [46] = colorants Red No. 401 0.0001 + Green No. 3 0.00001, photostabilizer 0.02 + Sodium metaphosphate 0.03
# [47] = colorants Red No. 401 0.0001 + Green No. 3 0.00001, photostabilizer 0.02, no sequestering agent
# [48] = colorants Yellow No. 203 0.0001 + Yellow No. 5 0.0001, photostabilizer 0.02 + Sodium metaphosphate 0.01
# [49] = colorants Yellow No. 203 0.0001 + Yellow No. 5 0.0001, photostabilizer 0.02, no sequestering agent
compound,measurement,setting,value
"Oc1nncc(N2CCOCC2)c1N1CCOCC1 [4,5-Dimorpholino-3-hydroxypyridazine]",Sunlight exposure (80 MJ) Appearance,[1]; [2],A
same,Sunlight exposure (80 MJ) ΔE,[1]; [2],1.00
same,Sunlight exposure (80 MJ) Appearance,[1]; [3],A
same,Sunlight exposure (80 MJ) ΔE,[1]; [3],1.18
same,Sunlight exposure (80 MJ) Appearance,[1]; [4],A
same,Sunlight exposure (80 MJ) ΔE,[1]; [4],1.08
same,Sunlight exposure (80 MJ) Appearance,[1]; [5],B
same,Sunlight exposure (80 MJ) ΔE,[1]; [5],1.74
same,Sunlight exposure (80 MJ) Appearance,[1]; [6],A
same,Sunlight exposure (80 MJ) ΔE,[1]; [6],0.28
same,Sunlight exposure (80 MJ) Appearance,[1]; [7],A
same,Sunlight exposure (80 MJ) ΔE,[1]; [7],0.52
same,Sunlight exposure (80 MJ) Appearance,[1]; [8],A
same,Sunlight exposure (80 MJ) ΔE,[1]; [8],0.48
same,Sunlight exposure (80 MJ) Appearance,[1]; [9],B
same,Sunlight exposure (80 MJ) ΔE,[1]; [9],0.75
same,Sunlight exposure (80 MJ) Appearance,[1]; [10],A
same,Sunlight exposure (80 MJ) ΔE,[1]; [10],0.77
same,Sunlight exposure (80 MJ) Appearance,[1]; [11],A
same,Sunlight exposure (80 MJ) ΔE,[1]; [11],0.85
same,Sunlight exposure (80 MJ) Appearance,[1]; [12],A
same,Sunlight exposure (80 MJ) ΔE,[1]; [12],0.84
same,Sunlight exposure (80 MJ) Appearance,[1]; [13],B
same,Sunlight exposure (80 MJ) ΔE,[1]; [13],1.23
same,Sunlight exposure (80 MJ) Appearance,[1]; [14],A
same,Sunlight exposure (80 MJ) ΔE,[1]; [14],1.38
same,Sunlight exposure (80 MJ) Appearance,[1]; [15],A
same,Sunlight exposure (80 MJ) ΔE,[1]; [15],1.45
same,Sunlight exposure (80 MJ) Appearance,[1]; [16],A
same,Sunlight exposure (80 MJ) ΔE,[1]; [16],1.41
same,Sunlight exposure (80 MJ) Appearance,[1]; [17],B
same,Sunlight exposure (80 MJ) ΔE,[1]; [17],2.12
same,Sunlight exposure (80 MJ) Appearance,[1]; [18],B
same,Sunlight exposure (80 MJ) ΔE,[1]; [18],0.84
same,Sunlight exposure (80 MJ) Appearance,[1]; [19],A
same,Sunlight exposure (80 MJ) ΔE,[1]; [19],0.62
same,Sunlight exposure (80 MJ) Appearance,[1]; [20],A
same,Sunlight exposure (80 MJ) ΔE,[1]; [20],0.58
same,Sunlight exposure (80 MJ) Appearance,[1]; [21],B
same,Sunlight exposure (80 MJ) ΔE,[1]; [21],0.98
same,Sunlight exposure (80 MJ) Appearance,[1]; [22],A
same,Sunlight exposure (80 MJ) ΔE,[1]; [22],0.66
same,Sunlight exposure (80 MJ) Appearance,[1]; [23],A
same,Sunlight exposure (80 MJ) ΔE,[1]; [23],0.78
same,Sunlight exposure (80 MJ) Appearance,[1]; [24],A
same,Sunlight exposure (80 MJ) ΔE,[1]; [24],0.71
same,Sunlight exposure (80 MJ) Appearance,[1]; [25],A
same,Sunlight exposure (80 MJ) ΔE,[1]; [25],0.95
same,Sunlight exposure (80 MJ) Appearance,[1]; [26],A
same,Sunlight exposure (80 MJ) ΔE,[1]; [26],0.36
same,Sunlight exposure (80 MJ) Appearance,[1]; [27],A
same,Sunlight exposure (80 MJ) ΔE,[1]; [27],0.33
same,Sunlight exposure (80 MJ) Appearance,[1]; [28],A
same,Sunlight exposure (80 MJ) ΔE,[1]; [28],0.32
same,Sunlight exposure (80 MJ) Appearance,[1]; [29],B
same,Sunlight exposure (80 MJ) ΔE,[1]; [29],0.61
same,Sunlight exposure (80 MJ) Appearance,[1]; [30],A
same,Sunlight exposure (80 MJ) ΔE,[1]; [30],0.22
same,Sunlight exposure (80 MJ) Appearance,[1]; [31],A
same,Sunlight exposure (80 MJ) ΔE,[1]; [31],0.28
same,Sunlight exposure (80 MJ) Appearance,[1]; [32],A
same,Sunlight exposure (80 MJ) ΔE,[1]; [32],0.25
same,Sunlight exposure (80 MJ) Appearance,[1]; [33],B
same,Sunlight exposure (80 MJ) ΔE,[1]; [33],0.95
same,Sunlight exposure (80 MJ) Appearance,[1]; [34],A
same,Sunlight exposure (80 MJ) ΔE,[1]; [34],0.98
same,Sunlight exposure (80 MJ) Appearance,[1]; [35],B
same,Sunlight exposure (80 MJ) ΔE,[1]; [35],1.33
same,Sunlight exposure (80 MJ) Appearance,[1]; [36],A
same,Sunlight exposure (80 MJ) ΔE,[1]; [36],0.75
same,Sunlight exposure (80 MJ) Appearance,[1]; [37],A
same,Sunlight exposure (80 MJ) ΔE,[1]; [37],1.10
same,Sunlight exposure (80 MJ) Appearance,[1]; [38],A
same,Sunlight exposure (80 MJ) ΔE,[1]; [38],1.22
same,Sunlight exposure (80 MJ) Appearance,[1]; [39],B
same,Sunlight exposure (80 MJ) ΔE,[1]; [39],1.88
same,Sunlight exposure (80 MJ) Appearance,[1]; [40],A
same,Sunlight exposure (80 MJ) ΔE,[1]; [40],0.71
same,Sunlight exposure (80 MJ) Appearance,[1]; [41],B
same,Sunlight exposure (80 MJ) ΔE,[1]; [41],1.02
same,Sunlight exposure (80 MJ) Appearance,[1]; [42],A
same,Sunlight exposure (80 MJ) ΔE,[1]; [42],1.01
same,Sunlight exposure (80 MJ) Appearance,[1]; [43],A
same,Sunlight exposure (80 MJ) ΔE,[1]; [43],1.55
same,Sunlight exposure (80 MJ) Appearance,[1]; [44],A
same,Sunlight exposure (80 MJ) ΔE,[1]; [44],0.88
same,Sunlight exposure (80 MJ) Appearance,[1]; [45],A
same,Sunlight exposure (80 MJ) ΔE,[1]; [45],1.36
same,Sunlight exposure (80 MJ) Appearance,[1]; [46],A
same,Sunlight exposure (80 MJ) ΔE,[1]; [46],0.73
same,Sunlight exposure (80 MJ) Appearance,[1]; [47],B
same,Sunlight exposure (80 MJ) ΔE,[1]; [47],1.45
same,Sunlight exposure (80 MJ) Appearance,[1]; [48],A
same,Sunlight exposure (80 MJ) ΔE,[1]; [48],0.48
same,Sunlight exposure (80 MJ) Appearance,[1]; [49],A
same,Sunlight exposure (80 MJ) ΔE,[1]; [49],0.78
same,color difference ΔE,"[1]; with a sequestering agent, compared with compositions not having a sequestering agent, Tables 24 to 26",very small
same,change of appearance of the composition,"[1]; with a sequestering agent, Tables 24 to 26",small
same,"Judgment (continuous use test, average skin reaction score)",skin (face); Cream,A (Average score is 0.)
same,"Judgment (continuous use test, average skin reaction score)",skin (face); Lotion,A (Average score is 0.)
